From PubChem BioAssay AID330 (DTP/NCI, 2004)
Where “and” joins values, the source holds several entries; their conditions need not be identical. Identical values can stand only once. Inconclusive results and toxic doses are left out. The calls were made as follows: active = survival T/C of 150% or more; inactive = T/C below 125% in these data.

Test system: P388 leukemia ip, CD2F1 mice, survival T/C
Assay: NCI In Vivo Anticancer Drug Screen. Data for tumor model P388 Leukemia (intraperitoneal) in CD2F1 (CDF1) mice
Conditions: endpoint: median survival time, higher = longer survival
How it was run: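 Mice carrying the transplanted tumor received test compound or vehicle. Survival was recorded in each group, and the value is the treated-group measurement divided by that of the vehicle-treated control group.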

[1] = dose: 60.0 mg/kg/injection, schedule: Q01DX005 (ip), vehicle: saline with Tween-80
[2] = dose: 60.0 mg/kg/injection, schedule: Q01DX005 (ip), vehicle: Klucel (hydroxypropylcellulose) (HPC)
[3] = dose: 50.0 mg/kg/injection, schedule: Q04DX003 (ip), vehicle: saline with Tween-80
[4] = dose: 100.0 mg/kg/injection, schedule: Q04DX003 (ip), vehicle: saline with Tween-80
[5] = dose: 200.0 mg/kg/injection, schedule: Q04DX003 (ip), vehicle: saline with Tween-80
[6] = dose: 100.0 mg/kg/injection, schedule: Q01DX009 (ip), vehicle: saline with Tween-80
[7] = dose: 200.0 mg/kg/injection, schedule: Q01DX009 (ip), vehicle: saline with Tween-80
[8] = dose: 100.0 mg/kg/injection, schedule: Q04DX002 (ip), vehicle: saline
[9] = dose: 200.0 mg/kg/injection, schedule: Q04DX002 (ip), vehicle: saline
[10] = dose: 400.0 mg/kg/injection, schedule: Q04DX002 (ip), vehicle: saline

Measured: T/C

COc1cc(C2c3cc4c(cc3OC(N3CCCC3)C2C)OCO4)cc(OC)c1OC (configuration not stated)
inactive: [1] 90 % of control | dose: 120.0 mg/kg/injection, schedule: Q01DX005 (ip), vehicle: saline with Tween-80 93 % of control | dose: 240.0 mg/kg/injection, schedule: Q01DX005 (ip), vehicle: saline with Tween-80 104 % of control

CC1CCC(C(C)C2C(O)CC3C4CCC5CC(N)CCC5(C)C4CCC32C)=NC1 (configuration not stated) (tested in a mixture with another compound)
inactive: dose: 6.25 mg/kg/injection, schedule: Q01DX009 (ip), vehicle: Klucel (hydroxypropylcellulose) (HPC) 100 % of control | dose: 12.5 mg/kg/injection, schedule: Q01DX009 (ip), vehicle: Klucel (hydroxypropylcellulose) (HPC) 94 % of control | dose: 25.0 mg/kg/injection, schedule: Q01DX009 (ip), vehicle: Klucel (hydroxypropylcellulose) (HPC) 105 % of control

CC(=O)OCc1c(-c2ccccc2)c(=O)c1=O
inactive: dose: 15.0 mg/kg/injection, schedule: Q01DX005 (ip), vehicle: saline with Tween-80 100 % of control | dose: 30.0 mg/kg/injection, schedule: Q01DX005 (ip), vehicle: saline with Tween-80 103 % of control | [2] 108 % of control | [1] 106 % of control

O=S1(=O)CS/C(=N/C(=S)N(Cc2ccccc2)Cc2ccccc2)N1c1ccccc1
inactive: [3] 89 % of control | [4] 104 % of control | [5] 111 % of control

[Cl][Mo]([Cl])([Cl])[Cl].[Cl][Mo]([Cl])([Cl])[Cl]
inactive: dose: 25.0 mg/kg/injection, schedule: Q01DX009 (ip), vehicle: saline 104 % of control | dose: 50.0 mg/kg/injection, schedule: Q01DX009 (ip), vehicle: saline 103 % of control | dose: 100.0 mg/kg/injection, schedule: Q01DX009 (ip), vehicle: saline 99 % of control

CC(=O)Cn1ccccc1=O
inactive: dose: 60.0 mg/kg/injection, schedule: Q01DX005 (ip), vehicle: saline 99 % of control | dose: 120.0 mg/kg/injection, schedule: Q01DX005 (ip), vehicle: saline 94 % of control | dose: 240.0 mg/kg/injection, schedule: Q01DX005 (ip), vehicle: saline 99 % of control

COc1ccc([N+](=O)[O-])cc1Br
inactive: [6] 100 % of control | [7] 100 % of control | dose: 400.0 mg/kg/injection, schedule: Q01DX009 (ip), vehicle: saline with Tween-80 100 % of control

N#Cc1ccccc1N1CCCC1=O
inactive: [8] 90 % of control | [9] 102 % of control | [10] 97 % of control

Nc1nc(N)c2cc(N3CCCC3c3ccc(Cl)cc3)ccc2n1 (configuration not stated)
inactive: dose: 1.56 mg/kg/injection, schedule: Q01DX005 (ip), vehicle: Klucel (hydroxypropylcellulose) (HPC) 98 % of control | dose: 1.56 mg/kg/injection, schedule: Q01DX009 (ip), vehicle: Klucel (hydroxypropylcellulose) (HPC) 100 % of control and 101 % of control | dose: 3.12 mg/kg/injection, schedule: Q01DX005 (ip), vehicle: Klucel (hydroxypropylcellulose) (HPC) 98 % of control | dose: 3.12 mg/kg/injection, schedule: Q01DX009 (ip), vehicle: Klucel (hydroxypropylcellulose) (HPC) 101 % of control and 118 % of control | dose: 6.25 mg/kg/injection, schedule: Q01DX005 (ip), vehicle: Klucel (hydroxypropylcellulose) (HPC) 96 % of control | dose: 12.5 mg/kg/injection, schedule: Q01DX005 (ip), vehicle: Klucel (hydroxypropylcellulose) (HPC) 108 % of control

Cc1ccc(OC(=O)c2ccc3ccccc3n2)cc1
inactive: dose: 100.0 mg/kg/injection, schedule: Q04DX002 (ip), vehicle: saline with Tween-80 101 % of control | dose: 200.0 mg/kg/injection, schedule: Q04DX002 (ip), vehicle: saline with Tween-80 94 % of control | dose: 400.0 mg/kg/injection, schedule: Q04DX002 (ip), vehicle: saline with Tween-80 94 % of control

O=[N+]([O-])c1ccc(/C=C/[n+]2ccc3ccccc3c2)o1
inactive: dose: 1.56 mg/kg/injection, schedule: Q01DX009 (ip), vehicle: saline 107 % of control | dose: 3.12 mg/kg/injection, schedule: Q01DX009 (ip), vehicle: saline 103 % of control | dose: 6.25 mg/kg/injection, schedule: Q01DX009 (ip), vehicle: saline 108 % of control and 91 % of control

O=C1NC(=O)N(c2cccc(Cl)c2)C1=O
inactive: dose: 50.0 mg/kg/injection, schedule: Q01DX009 (ip), vehicle: Klucel (hydroxypropylcellulose) (HPC) 106 % of control | dose: 100.0 mg/kg/injection, schedule: Q01DX009 (ip), vehicle: Klucel (hydroxypropylcellulose) (HPC) 109 % of control | dose: 200.0 mg/kg/injection, schedule: Q01DX009 (ip), vehicle: Klucel (hydroxypropylcellulose) (HPC) 102 % of control

CCCNC1=C(C)C(=O)C2=C(C1=O)[C@H](COC(N)=O)[C@]1(OC)[C@@H]3N[C@@H]3CN21
inactive: dose: 6.25 mg/kg/injection, schedule: Q01DX009 (ip), vehicle: saline sonified 86 % of control | dose: 12.5 mg/kg/injection, schedule: Q04DX003 (ip), vehicle: saline with Tween-80 86 % of control

COC(=O)C1C(OS(=O)(=O)O)CCC2CN3CCc4c([nH]c5ccccc45)C3CC21 (configuration not stated)
inactive: [2] 102 % of control | dose: 120.0 mg/kg/injection, schedule: Q01DX005 (ip), vehicle: Klucel (hydroxypropylcellulose) (HPC) 105 % of control | dose: 240.0 mg/kg/injection, schedule: Q01DX005 (ip), vehicle: Klucel (hydroxypropylcellulose) (HPC) 103 % of control

C1CNCOC1
inactive: dose: 50.0 mg/kg/injection, schedule: Q04DX003 (ip), vehicle: saline 120 % of control | dose: 100.0 mg/kg/injection, schedule: Q04DX003 (ip), vehicle: saline 117 % of control | dose: 200.0 mg/kg/injection, schedule: Q04DX003 (ip), vehicle: saline 123 % of control

Cc1ncc(N)c(C(=O)O)n1
inactive: dose: 50.0 mg/kg/injection, schedule: Q01DX005 (ip), vehicle: Klucel (hydroxypropylcellulose) (HPC) 98 % of control | dose: 100.0 mg/kg/injection, schedule: Q01DX005 (ip), vehicle: Klucel (hydroxypropylcellulose) (HPC) 98 % of control

ClCCN(CCCl)CCCN1c2ccccc2Sc2ccccc21
inactive: dose: 3.12 mg/kg/injection, schedule: Q01DX009 (ip), vehicle: saline with Tween-80 122 % of control

O=C([O-])CN(CCN(CC(=O)[O-])CC(=O)O)CC(=O)O.[Fe+5].[Na+]
inactive: dose: 50.0 mg/kg/injection, schedule: Q01DX009 (ip), vehicle: saline with Tween-80 91 % of control | [6] 91 % of control | dose: 100.0 mg/kg/injection, schedule: Q04DX003 (ip), vehicle: saline sonified 86 % of control | [7] 91 % of control | dose: 200.0 mg/kg/injection, schedule: Q04DX003 (ip), vehicle: saline sonified 90 % of control

CC1=C(CO)C(=O)OC(C(C)C2CCC3C4CC5OC56C(O)C(N5CCOCC5)CC(=O)C6(C)C4CCC23C)C1 (configuration not stated)
inactive: dose: 8.25 mg/kg/injection, schedule: Q01DX005 (ip), vehicle: Klucel (hydroxypropylcellulose) (HPC) 103 % of control | dose: 16.5 mg/kg/injection, schedule: Q01DX005 (ip), vehicle: Klucel (hydroxypropylcellulose) (HPC) 99 % of control | dose: 33.0 mg/kg/injection, schedule: Q01DX005 (ip), vehicle: Klucel (hydroxypropylcellulose) (HPC) 97 % of control | dose: 66.0 mg/kg/injection, schedule: Q01DX005 (ip), vehicle: Klucel (hydroxypropylcellulose) (HPC) 97 % of control | dose: 132.0 mg/kg/injection, schedule: Q01DX005 (ip), vehicle: Klucel (hydroxypropylcellulose) (HPC) 103 % of control

CC(C)N(C(=S)/N=C1/SCS(=O)(=O)N1C)C(C)C
inactive: [3] 101 % of control | [4] 104 % of control | [5] 104 % of control

COC(=O)C1(C)N=C1N(C)C (configuration not stated)
inactive: [8] 92 % of control | [9] 90 % of control | [10] 93 % of control

c1ccc2c(c1)nc1snc(-n3ccnc3)n12
inactive: [3] 103 % of control | [4] 111 % of control | [5] 90 % of control

CC(CN1c2ccccc2Sc2ccccc21)N(C)C (configuration not stated)
inactive: dose: 25.0 mg/kg/injection, schedule: Q01DX001 (ip), vehicle: saline 99 % of control | dose: 50.0 mg/kg/injection, schedule: Q01DX001 (ip), vehicle: saline 101 % of control | dose: 100.0 mg/kg/injection, schedule: Q01DX001 (ip), vehicle: saline 95 % of control

COc1c2c(cc3c1OCO3)CCN(C)C2
inactive: dose: 10.0 mg/kg/injection, schedule: Q01DX009 (ip), vehicle: saline 106 % of control | dose: 20.0 mg/kg/injection, schedule: Q01DX009 (ip), vehicle: saline 101 % of control | dose: 40.0 mg/kg/injection, schedule: Q01DX009 (ip), vehicle: saline 98 % of control | dose: 80.0 mg/kg/injection, schedule: Q01DX009 (ip), vehicle: saline 104 % of control
